From ChEMBL document CHEMBL5346978, “Exploration of Tetrahydroisoquinoline- and Benzo[c]azepine-Based Sphingosine 1-Phosphate Receptor 1 Agonists for the Treatment of Multiple Sclerosis” (J Med Chem, 2023)
The source made the active and inactive calls. The rule behind the calls is not given here.

Columns and labels:
[1] = molecular target: T1, Sphingosine 1-phosphate receptor 4 (Homo sapiens, UniProt O95977); assay: Agonist activity at S1P4 (unknown origin) expressed in CHO cells assessed as Ca2+ activation; type: functional, cell-based
T1 sequence (O95977 whole entry): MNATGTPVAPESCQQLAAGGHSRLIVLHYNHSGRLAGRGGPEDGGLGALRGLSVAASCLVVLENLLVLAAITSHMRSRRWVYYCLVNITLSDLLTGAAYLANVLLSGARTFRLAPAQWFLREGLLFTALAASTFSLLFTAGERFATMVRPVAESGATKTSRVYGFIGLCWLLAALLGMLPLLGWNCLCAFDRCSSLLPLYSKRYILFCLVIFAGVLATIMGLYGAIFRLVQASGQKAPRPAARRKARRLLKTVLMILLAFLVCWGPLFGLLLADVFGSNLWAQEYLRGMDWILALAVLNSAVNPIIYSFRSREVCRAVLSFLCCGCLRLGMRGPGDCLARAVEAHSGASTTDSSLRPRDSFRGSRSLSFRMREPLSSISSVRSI

[2] = molecular target: Sphingosine 1-phosphate receptor 3 (Homo sapiens, UniProt Q99500); assay: Agonist activity at S1P3 (unknown origin) expressed in PathHunter CHO-K1 EDG1 beta-arrestin cells assessed as beta-arrestin recruitment; type: functional, cell-based
[3] = molecular target: T1, Sphingosine 1-phosphate receptor 4; assay: Agonist activity at S1P4 (unknown origin) expressed in PathHunter CHO-K1 EDG1 beta-arrestin cells assessed as beta-arrestin recruitment; type: functional, cell-based
[4] = molecular target: T2, Sphingosine 1-phosphate receptor 1 (Homo sapiens, UniProt P21453); assay: Agonist activity at S1P1 (unknown origin) expressed in human HEK293/Galpha15 cells assessed as Ca2+ activation at 1 uM measured for 2 hrs by FLIPR analysis relative to control; type: functional, cell-based; conditions: filed as agonist
[5] = molecular target: T2, Sphingosine 1-phosphate receptor 1; assay: Agonist activity at S1P1 (unknown origin) expressed in human HEK293/Galpha15 cells assessed as Ca2+ activation measured for 2 hrs by FLIPR analysis; type: functional, cell-based
[6] = molecular target: T2, Sphingosine 1-phosphate receptor 1; assay: Agonist activity at S1P1 (unknown origin) expressed in PathHunter CHO-K1 EDG1 beta-arrestin cells assessed as beta-arrestin2 recruitment at 1 uM incubated for 90 mins by chemiluminescence based assay relative to control; type: functional, cell-based; conditions: filed as agonist
[7] = molecular target: T2, Sphingosine 1-phosphate receptor 1; assay: Agonist activity at S1P1 (unknown origin) expressed in PathHunter CHO-K1 EDG1 beta-arrestin cells assessed as beta-arrestin2 recruitment incubated for 90 mins by chemiluminescence based assay; type: functional, cell-based
[8] = Microsomal stability in rat liver microsomes assessed as parent compound remaining preincubated for 5 mins followed by NADPH addition measured after 60 mins by LC-MS/MS analysis; type: ADME, Microsome; conditions: time 65 min, read-out: Stability
[9] = Microsomal stability in mouse liver microsomes assessed as parent compound remaining preincubated for 5 mins followed by NADPH addition measured after 60 mins by LC-MS/MS analysis; type: ADME, Microsome; conditions: time 65 min, read-out: Stability
CYP2C9 = CYP2C9 (Homo sapiens, UniProt P11712); assay: Inhibition of CYP2C9 in human liver microsomes using diclofenac as substrate assessed as residual activity at 10 uM preincubated for 5 mins followed by substrate addition and measured after 15 mins in presence of NADPH by LC-MS/MS analysis; type: ADME, Microsome; conditions: probe diclofenac, time 20 min, read-out: Activity
CYP2D6 = CYP2D6 (Homo sapiens, UniProt P10635); assay: Inhibition of CYP2D6 in human liver microsomes using dextromethorphan as substrate assessed as residual activity at 10 uM preincubated for 5 mins followed by substrate addition and measured after 15 mins in presence of NADPH by LC-MS/MS analysis; type: ADME, Microsome; conditions: probe dextromethorphan, time 20 min, read-out: Activity
CYP3A4 = CYP3A4 (Homo sapiens, UniProt P08684); assay: Inhibition of CYP3A4 in human liver microsomes using midazolam as substrate assessed as residual activity at 10 uM preincubated for 5 mins followed by substrate addition and measured after 15 mins in presence of NADPH by LC-MS/MS analysis; type: ADME, Microsome; conditions: probe midazolam, time 20 min, read-out: Activity
[10] = Tmax in ICR mouse at 10 mg/kg, po measured at 0.25 to 12 hrs by LC-MS/MS analysis; type: ADME, organism-based; conditions: in vivo, time 0.25-12 hrs
[11] = Cmax in ICR mouse at 10 mg/kg, po measured at 0.25 to 12 hrs by LC-MS/MS analysis; type: ADME, organism-based; design: time upper 12 hrs, dose 10 mg/kg, time lower 0.25 hrs, route po; conditions: in vivo
[12] = Half life in ICR mouse at 1 mg/kg, iv measured at 0.25 to 12 hrs by LC-MS/MS analysis; type: ADME, organism-based; conditions: in vivo, time 0.25-12 hrs
[13] = Half life in ICR mouse at 10 mg/kg, po measured at 0.25 to 12 hrs by LC-MS/MS analysis; type: ADME, organism-based; conditions: in vivo, time 0.25-12 hrs
[14] = AUClast in ICR mouse at 1 mg/kg, iv measured at 0.25 to 12 hrs by LC-MS/MS analysis; type: ADME, organism-based; design: time lower 0.25 hrs, dose 1 mg/kg, time upper 12 hrs, route iv; conditions: in vivo
[15] = AUClast in ICR mouse at 10 mg/kg, po measured at 0.25 to 12 hrs by LC-MS/MS analysis; type: ADME, organism-based; design: time 0.25-12 hrs, dose 10 mg/kg, route po; conditions: in vivo
[16] = Observed clearance in ICR mouse at 1 mg/kg, iv measured at 0.25 to 12 hrs by LC-MS/MS analysis; type: ADME, organism-based; conditions: in vivo, time 0.25-12 hrs
[17] = Observed MRT (infinitive) in ICR mouse at 10 mg/kg, po measured at 0.25 to 12 hrs by LC-MS/MS analysis; type: ADME, organism-based; conditions: in vivo, time 0.25-12 hrs
[18] = Observed MRT (infinitive) in ICR mouse at 1 mg/kg, iv measured at 0.25 to 12 hrs by LC-MS/MS analysis; type: ADME, organism-based; conditions: in vivo, time 0.25-12 hrs
[19] = Observed volume of distribution at steady state in ICR mouse at 1 mg/kg, iv measured at 0.25 to 12 hrs by LC-MS/MS analysis; type: ADME, organism-based; conditions: in vivo, time 0.25-12 hrs, read-out: Vdss
[20] = Oral bioavailability in ICR mouse at 10 mg/kg measured at 0.25 to 12 hrs by LC-MS/MS analysis; type: ADME, organism-based; conditions: in vivo, time 0.25-12 hrs
Mus musculus [21] = assay: In vivo agonist activity at S1P1 in mouse assessed as reduction in peripheral lymphocyte count at 10 mg/kg, po measured at 3 hrs; type: functional, organism-based
Mus musculus [22] = assay: In vivo agonist activity at S1P1 in mouse assessed as reduction in peripheral lymphocyte count at 1 to 3 mg/kg, po measured at 3 hrs; type: functional, organism-based; conditions: dose 1-3 mg/kg
Mus musculus [23] = assay: In vivo agonist activity at S1P1 in mouse assessed as reduction in peripheral lymphocyte count at 10 mg/kg, po measured at 6 hrs; type: functional, organism-based
Mus musculus [24] = assay: In vivo agonist activity at S1P1 in po dosed mouse assessed as reduction in peripheral lymphocyte count measured at 6 hrs; type: functional, organism-based; conditions: dose 1-10 mg/kg
Mus musculus [25] = assay: In vivo agonist activity at S1P1 in po dosed mouse assessed as reduction in peripheral lymphocyte count at 1 to 10 mg/kg, po measured after 24 hrs; type: functional, organism-based; conditions: dose 1-10 mg/kg
Mus musculus [26] = assay: Protection against MOG35-55/CFA-induced experimental autoimmune encephalomyelitis C57BL/6 mouse model assessed as reduction disease progression at 10 mg/kg, po administered once a day for 23 days; type: functional, organism-based; conditions: time 23.0 day
[27] = Toxicity in C57BL/6 mouse assessed as body weight loss at 10 mg/kg, po administered once a day for 23 days; type: organism-based; conditions: in vivo, 552 h, time 23 day
[28] = molecular target: Sphingosine 1-phosphate receptor 5 (Homo sapiens, UniProt Q9H228); assay: Agonist activity at S1P5 (unknown origin) expressed in CHO cells assessed as Ca2+ activation; type: functional, cell-based
[29] = molecular target: Sphingosine 1-phosphate receptor 2 (Homo sapiens, UniProt O95136); assay: Agonist activity at S1P2 (unknown origin) expressed in PathHunter CHO-K1 EDG1 beta-arrestin cells assessed as beta-arrestin recruitment; type: functional, cell-based
[30] = Cardiotoxicity in human iPSC-derived cardiomyocyte assessed as effect on intracellular cardiomyocyte contraction at 10 uM measured for 2 mins by FLIPR analysis; type: toxicity, cell-based; conditions: cardiac muscle cell
[31] = Microsomal stability in human liver microsomes assessed as parent compound remaining preincubated for 5 mins followed by NADPH addition measured after 60 mins by LC-MS/MS analysis; type: ADME, Microsome; conditions: time 65 min, read-out: Stability
CYP1A2 = molecular target: T3, CYP1A2 (Homo sapiens, UniProt P05177); assay: Inhibition of CYP1A2 in human liver microsomes using phenacetin as substrate assessed as residual activity at 10 uM preincubated for 5 mins followed by substrate addition and measured after 15 mins in presence of NADPH by LC-MS/MS analysis; type: ADME, Microsome; conditions: probe phenacetin, time 20 min, read-out: Activity
T3 sequence (P05177 whole entry): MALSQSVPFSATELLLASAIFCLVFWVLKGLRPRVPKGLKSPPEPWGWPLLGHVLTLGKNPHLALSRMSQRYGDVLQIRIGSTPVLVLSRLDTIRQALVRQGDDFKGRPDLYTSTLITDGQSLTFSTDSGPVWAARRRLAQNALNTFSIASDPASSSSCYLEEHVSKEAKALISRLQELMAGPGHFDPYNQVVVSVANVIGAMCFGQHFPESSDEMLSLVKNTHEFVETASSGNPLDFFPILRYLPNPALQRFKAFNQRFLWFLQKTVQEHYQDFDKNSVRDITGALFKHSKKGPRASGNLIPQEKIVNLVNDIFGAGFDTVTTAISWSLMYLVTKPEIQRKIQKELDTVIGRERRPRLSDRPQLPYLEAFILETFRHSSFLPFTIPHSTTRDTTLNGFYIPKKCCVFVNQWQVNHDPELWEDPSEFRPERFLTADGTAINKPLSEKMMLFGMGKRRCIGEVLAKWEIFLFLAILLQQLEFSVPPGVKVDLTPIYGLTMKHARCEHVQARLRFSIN

T2 sequence (P21453 whole entry): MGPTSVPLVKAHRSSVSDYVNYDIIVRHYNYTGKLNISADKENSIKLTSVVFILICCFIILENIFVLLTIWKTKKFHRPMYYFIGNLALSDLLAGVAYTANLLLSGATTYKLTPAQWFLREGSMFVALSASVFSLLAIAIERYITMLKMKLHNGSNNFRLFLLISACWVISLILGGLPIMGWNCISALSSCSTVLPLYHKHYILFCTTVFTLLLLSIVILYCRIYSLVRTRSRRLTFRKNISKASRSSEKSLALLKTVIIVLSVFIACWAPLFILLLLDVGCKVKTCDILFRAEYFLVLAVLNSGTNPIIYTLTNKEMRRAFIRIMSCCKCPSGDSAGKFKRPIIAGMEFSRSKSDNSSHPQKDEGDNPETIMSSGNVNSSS
Chain of Sphingosine 1-phosphate receptor 3 (Q99500 whole entry): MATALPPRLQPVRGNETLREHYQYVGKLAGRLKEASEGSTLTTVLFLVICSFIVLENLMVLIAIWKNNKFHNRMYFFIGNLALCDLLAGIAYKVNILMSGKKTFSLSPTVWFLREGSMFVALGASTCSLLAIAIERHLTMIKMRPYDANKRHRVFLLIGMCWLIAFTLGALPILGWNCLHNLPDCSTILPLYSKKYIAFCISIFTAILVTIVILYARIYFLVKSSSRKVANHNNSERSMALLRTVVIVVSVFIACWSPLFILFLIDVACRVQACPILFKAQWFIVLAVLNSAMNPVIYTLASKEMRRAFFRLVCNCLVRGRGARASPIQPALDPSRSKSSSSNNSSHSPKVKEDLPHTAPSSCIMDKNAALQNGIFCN
Chain of CYP2D6 (P10635 whole entry): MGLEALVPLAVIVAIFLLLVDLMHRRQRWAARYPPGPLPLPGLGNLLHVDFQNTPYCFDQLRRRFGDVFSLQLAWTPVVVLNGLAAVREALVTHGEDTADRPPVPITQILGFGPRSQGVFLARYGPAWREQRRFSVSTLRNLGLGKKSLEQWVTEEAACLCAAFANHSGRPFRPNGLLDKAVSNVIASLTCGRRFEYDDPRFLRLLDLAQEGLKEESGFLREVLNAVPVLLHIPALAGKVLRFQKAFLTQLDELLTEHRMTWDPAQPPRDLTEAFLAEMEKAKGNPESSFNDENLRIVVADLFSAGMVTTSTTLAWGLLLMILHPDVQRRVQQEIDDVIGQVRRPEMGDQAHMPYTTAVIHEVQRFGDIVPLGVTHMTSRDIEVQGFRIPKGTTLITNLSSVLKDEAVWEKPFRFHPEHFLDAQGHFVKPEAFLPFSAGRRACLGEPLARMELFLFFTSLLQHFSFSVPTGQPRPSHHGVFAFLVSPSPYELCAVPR
Chain of CYP2C9 (P11712 whole entry): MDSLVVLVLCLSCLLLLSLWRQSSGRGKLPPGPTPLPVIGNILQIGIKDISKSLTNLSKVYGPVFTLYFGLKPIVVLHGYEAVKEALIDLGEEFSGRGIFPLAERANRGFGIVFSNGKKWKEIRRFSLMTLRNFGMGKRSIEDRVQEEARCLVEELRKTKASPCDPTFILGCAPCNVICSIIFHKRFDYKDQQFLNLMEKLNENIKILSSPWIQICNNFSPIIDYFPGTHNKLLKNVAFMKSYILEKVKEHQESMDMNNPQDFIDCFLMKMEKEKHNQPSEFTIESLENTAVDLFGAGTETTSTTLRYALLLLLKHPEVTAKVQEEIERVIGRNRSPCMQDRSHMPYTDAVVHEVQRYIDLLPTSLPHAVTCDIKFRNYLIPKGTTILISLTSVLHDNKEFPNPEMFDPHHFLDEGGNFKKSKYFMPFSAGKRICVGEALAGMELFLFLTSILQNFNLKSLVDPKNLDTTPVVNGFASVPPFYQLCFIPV
Chain of CYP3A4 (P08684 whole entry): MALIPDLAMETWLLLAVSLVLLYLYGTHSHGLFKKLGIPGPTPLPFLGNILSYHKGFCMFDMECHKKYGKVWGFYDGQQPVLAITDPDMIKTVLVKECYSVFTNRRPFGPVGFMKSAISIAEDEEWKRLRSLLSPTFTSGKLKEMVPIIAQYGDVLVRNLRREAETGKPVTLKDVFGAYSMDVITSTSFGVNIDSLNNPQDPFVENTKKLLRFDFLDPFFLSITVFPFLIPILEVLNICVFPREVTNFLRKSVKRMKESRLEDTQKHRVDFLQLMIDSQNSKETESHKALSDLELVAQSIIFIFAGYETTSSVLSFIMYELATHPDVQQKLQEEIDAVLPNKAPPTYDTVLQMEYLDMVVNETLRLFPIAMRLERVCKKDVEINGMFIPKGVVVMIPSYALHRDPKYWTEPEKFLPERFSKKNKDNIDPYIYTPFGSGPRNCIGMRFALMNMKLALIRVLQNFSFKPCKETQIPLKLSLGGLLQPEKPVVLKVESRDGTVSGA
Chain of Sphingosine 1-phosphate receptor 2 (O95136 whole entry): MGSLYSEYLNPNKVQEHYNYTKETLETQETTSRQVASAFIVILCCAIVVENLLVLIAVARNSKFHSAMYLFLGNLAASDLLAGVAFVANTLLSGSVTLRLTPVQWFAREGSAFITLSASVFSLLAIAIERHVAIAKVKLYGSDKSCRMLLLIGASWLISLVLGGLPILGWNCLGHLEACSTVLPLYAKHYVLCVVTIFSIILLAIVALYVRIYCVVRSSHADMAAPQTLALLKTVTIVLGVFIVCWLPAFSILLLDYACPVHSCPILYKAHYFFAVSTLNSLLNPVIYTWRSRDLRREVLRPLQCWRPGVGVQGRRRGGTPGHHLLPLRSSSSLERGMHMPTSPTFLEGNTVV
Chain of Sphingosine 1-phosphate receptor 5 (Q9H228 whole entry): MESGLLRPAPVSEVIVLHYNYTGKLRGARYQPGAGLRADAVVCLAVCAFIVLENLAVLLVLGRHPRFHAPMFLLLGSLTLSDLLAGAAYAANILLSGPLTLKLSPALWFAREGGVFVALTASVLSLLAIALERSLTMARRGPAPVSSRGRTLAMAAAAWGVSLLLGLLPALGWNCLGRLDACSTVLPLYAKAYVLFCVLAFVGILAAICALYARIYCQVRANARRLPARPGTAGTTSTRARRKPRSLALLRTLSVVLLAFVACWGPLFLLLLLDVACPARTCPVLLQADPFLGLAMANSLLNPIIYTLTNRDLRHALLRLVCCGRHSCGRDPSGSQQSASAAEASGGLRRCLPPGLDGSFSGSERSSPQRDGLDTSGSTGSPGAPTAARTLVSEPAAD

CCCCCCCCCCCCC/C=C/[C@@H](O)[C@@H](N)COP(=O)(O)O
EC50 [1]: 9 nM
EC50 [2]: 22 nM
EC50 [3]: 92 nM

CC(C)Oc1ccc(COc2ccc3c(c2)CCCN(S(=O)(=O)CCC(=O)O)C3)cc1C#N
Activity [4]: 113%
EC50 [5]: 21 nM
Activity [6]: 81%
EC50 [7]: 16 nM
remaining at 1 h [8]: 62.2%
remaining at 1 h [9]: 67.1%
activity at 0.25 h, 10 µM (CYP2C9): 96.2%
activity at 0.25 h, 10 µM (CYP2D6): 94.8%
activity at 0.25 h, 10 µM (CYP3A4): 96.4%
Tmax [10]: 5 h
Cmax [11]: 1130 ng/mL
half-life [12]: 0.6 h
half-life [13]: 1.8 h
AUC(0-t) [14]: 593 ng·h/mL
AUC(0-t) [15]: 1960 ng·h/mL
clearance [16]: 29 mL/min/kg
MRT inf [17]: 2.5 h
MRT inf [18]: 0.4 h
Vd [19]: 0.6 L/kg
bioavailability [20]: 33%
Activity (Mus musculus [21]): Active
Activity (Mus musculus [22]): Active
Activity (Mus musculus [23]): Active
Activity (Mus musculus [24]): Dose-Dependent Effect
Activity (Mus musculus [25]): Active
Activity (Mus musculus [26]): Active
Activity [27]: Non-Toxic
EC50 [1]: 33000 nM
EC50 [28]: 110 nM
EC50 [29]: > 100000 nM
EC50 [2]: > 100000 nM
EC50 [3]: 17700 nM
Activity [30]: Non-Toxic

CC(C)Oc1ccc(COc2ccc3c(c2)CCCN(S(=O)(=O)CCO)C3)cc1C#N
Activity [4]: 68%
EC50 [5]: 618 nM
Activity [6]: 116%
EC50 [7]: 11.1 nM
remaining at 1 h [31]: 15.2%
remaining at 1 h [8]: 13.1%
remaining at 1 h [9]: 10.7%
activity at 0.25 h, 10 µM (CYP1A2): 85.1%
activity at 0.25 h, 10 µM (CYP2C9): 53.7%
activity at 0.25 h, 10 µM (CYP2D6): 79.1%
activity at 0.25 h, 10 µM (CYP3A4): 84.7%
